Source: PMC7073110, “Molecular Rescue of Dyrk1A Overexpression Alterations in Mice with Fontup® Dietary Supplement: Role of Green Tea Catechins” (International Journal of Molecular Sciences, 2020)
Like-named read-outs stand apart in the source and are kept apart here. Each block holds one molecule with its values, some of them ahead of it.

Tests used:
[1] = target: T1, DYRK1A-ΔC (truncated DYRK1A, catalytic domain residues 1–502) (Rattus norvegicus, UniProt Q63470); experiment: DYRK1A-ΔC inhibition assay, HPLC/UFLC-based with fluorescent peptide substrate; assay type: biochemical; conditions: for remaining activity at 0.1 µM: read-out: DYRK1A-ΔC Remaining Activity at 0.1 µM; for remaining activity at 1 µM: read-out: DYRK1A-ΔC Remaining Activity at 1 µM; for remaining activity at 100 µM: read-out: DYRK1A-ΔC Remaining Activity at 100 µM; for Effect on DYRK1A-ΔC activity (in words): 0.1–100 µM
T1 construct: catalytic domain (residues 1–502) of rat DYRK1A; 6xHis; made in house; host or cells: Escherichia coli BL21
Procedure: W. Becker (Aachen University, Aachen, Germany) and subcloned into pET28a plasmid to produce recombinant 6xHis-tagged DYRK1A catalytic domain (DYRK1A-ΔC). The pET28-Dyrk1a-ΔC plasmid was transformed into Escherichia coli cells (BL21) for production and purification of the enzyme. Briefly, transformed bacteria cells were grown at 37 °C for 4 h until OD was between 0.6–0.7 and further grown at 37 °C for 5 h in the presence of 0.5 mM isopropyl β-D-1-thiogalactopyranoside (IPTG). Cells were harvested by centrifugation at 6000× g, 4 °C for 10 min and the pellet was washed with PBS. The pellet was re-suspended in PBS supplemented with protease inhibitors, 1 mg/mL lysozyme and 0.1% Triton X-100. After 30 min incubation at 4 °C, the lysate was subjected to sonication on ice (6 min with pulse on 30 s/ off 30 s) and pelleted at 10,000× g, 4 °C for 30 min. The supernatant was incubated with His-select nickel resin (Sigma, Saint-Quentin Fallavier, France) for 2 h at 4 °C under agitation, and the resin was transferred into a column and washed with Tris-HCl 20 mM, pH 8, with 5 mM imidazole. Proteins were eluted in Tris-HCl 20 mM, pH 8, 300 mM imidazole, and dialyzed overnight against Tris-HCl 50 mM, pH 8, dithiothreitol (DTT) 10 mM, MgCl2 5 mM. Purified proteins were quantified with Bradford’s reagent (BioRad). Purity was assessed by sodium dodecyl sulfate-polyacrylamide gel electrophoresis (SDS-PAGE). Proteins were kept at −80 °C until use.
The fluorescent peptide substrate was derived from the sequence of the human transcription factor FKHR that is a physiological substrate of DYRK1A [46]. […] The enzymatic reaction was started by addition of the substrate and the mixture was incubated at 37 °C for 30 min. […] The peptides were monitored by fluorimetry (excitation at 485 nm, emission at 530 nm) and quantified by integration of the peak absorbance area. A calibration curve established with different known concentrations of peptides was used for quantification. For inhibition studies with green tea catechins, the compounds, dissolved in water, were added at four different concentrations (up to 100 µM) to the well prior to addition of ATP (1 mM final concentration). Determination of the mode of inhibition (competitive/non-competitive) of the compounds was obtained by carrying assays with different concentrations of ATP (200, 400 and 800 µM).

[2] = target: T2, DYRK1A native human protein (Homo sapiens, UniProt Q13627); experiment: DYRK1A inhibition assay, HPLC-based (native protein PV3785); assay type: biochemical
T2 construct: purchased Thermo Fisher Scientific PV3785

[3] = EGCG levels in plasma and brain after oral gavage of FontUp; assay type: in vivo, mice; conditions: for concentration at 4 h / Kp at 4 h: male, mouse, two days; for Kp at 4 h: brain/plasma, read-out: Kp (brain concentration/plasma concentration)
Procedure: FontUp® was prepared daily as described above and strongly mixed at room temperature. Male mice received an oral gavage of three different doses (25, 50 and 75 mg/Kg), in the morning and in the evening for two or eight days. The last dose was administered 4 h before sacrifice.
Blood samples were obtained by retro-orbital sinus sampling with heparinized capillaries, collected into tubes containing a 1/10 volume of 3.8% sodium citrate, and immediately placed on ice. Plasma was isolated by centrifugation at 2500× g for 15 min at 4 °C. 80 µL of plasma samples were mixed with 20 µL 0.2 M NaH2PO4 solution containing 20% ascorbic acid and 0.1% EDTA, pH 3.6 for polyphenol assays. Plasma samples were store at −80 °C until use. Brains and hearts were harvested, snap-frozen in liquid nitrogen, and stored at −80 °C until use. Plasma total hcy, defined as the total concentration of hcy after quantitative reductive cleavage of all disulfide bonds, and total GSH were assayed using a fluorometric HPLC method previously described. ALT concentrations were determined using the Alanine Aminotransferase Activity Assay Kit (Sigma-Aldrich, Saint-Quentin Fallavier, France), based on the pyruvate generated. Plasma galectin-3 (Abcam ELISA kit, Paris, France), and fibronectin (Abcam ELISA kit) were assessed using sandwich ELISA. After removal of unbound conjugates, bound enzyme activity was assessed by use of a chromogenic substrate for measurement at 450 nm by a microplate reader (Flex Station 3, Molecular Devices, Ltd., Wokhingham, UK).
Brains were homogenized with 1.5 mm diameter beads for 2 min at 25 frequencies/second using a tissue lyser II (Qiagen, Hilden, Germany). The homogenates were centrifuged at 13,000 rpm for 10 min at 4 °C. The supernatants were transferred in a clear tube and mixed with the preservative solution as mentioned at one-tenth of its volume.
The catechin contents was analyzed as previously reported. Two hundred microliters of plasma or brain samples homogenates were thawed at room temperature and 50 µL of 0.4 M sodium phosphate buffer (pH 7.4) were added. The sample was mixed with 10 µL of beta-glucuronidase (250 units) and 10 µL of sulfatase (10 units) and then incubated at 37 °C for 45 min. Then the plasma or brain samples were partitioned with ethyl acetate in the ratio of 1:1 (v/v). The liquid-liquid extraction was carried out three times for 1 min by shaking on vortex and the organic phases (upper phases) were pooled. The combined ethyl acetate phases were evaporated under vacuum to dryness. The dry residue was re-dissolved in 50% methanol in water and was kept at −80 °C before HPLC analysis. HPLC was performed with a LC Prominence (Shimadzu, Kyoto, Japan) coupled with a Coulochem III electrode array detector (ESA Inc., Bedford, MA, USA) using a reverse- Interchrom C18 column (3 µm, 150 × 2.1 mm) eluted with the eluent described below at a flow rate of 0.35 mL/min at 45 °C. HPLC analysis was performed using a linear gradient system with mobile phase A (20 mM NaH2PO4) and mobile phase B (acetonitrile). Linear gradient elution was performed as follows: 100% mobile phase A for 10 min; 55% mobile phase A for 30 min and return to 100% mobile phase A for 15 min. The eluent was monitored using the Coulochem-III electrochemical detector (5011 analytical cell) with potential settings at 600 mV (E1) and 700 mV (E2). Quantification was carried out using the external standard method. Catechin quantification was performed after data acquisition using an LC Solution (Shimadzu).

DYRK1A = conditions: cited from earlier work
[4] = 0.1 µM compound, 1 mM ATP, 60 µM peptide, normalized to no inhibitor
[5] = 1 µM compound, 1 mM ATP, 60 µM peptide, normalized to no inhibitor
[6] = 10 µM compound, 1 mM ATP, 60 µM peptide, normalized to no inhibitor, read-out: DYRK1A-ΔC Remaining Activity at 10 µM
[7] = 100 µM compound, 1 mM ATP, 60 µM peptide, normalized to no inhibitor

remaining activity at 0.1 µM [1, 4]: 89.2 ± 9.5%
remaining activity at 1 µM [1, 5]: 84.1 ± 9.1%
remaining activity at 10 µM [1, 6]: 95.6 ± 8.1%
remaining activity at 100 µM [1, 7]: 88.7 ± 8.2%
Effect on DYRK1A-ΔC activity (in words) ([1]; 1 mM ATP): No effect
SMILES: Oc1cc(O)c2c(c1)O[C@H](c1ccc(O)c(O)c1)[C@H](O)C2 [EC, epicatechin]

remaining activity at 0.1 µM ([2]; 0.1 µM compound, 1 mM ATP, 60 µM peptide, native DYRK1A): 69.9 ± 3.9%
remaining activity at 1 µM ([2]; 1 µM compound, 1 mM ATP, 60 µM peptide, native DYRK1A): 12.5 ± 2.4%
remaining activity at 10 µM ([2]; 10 µM compound, 200 µM ATP, up to 60 min at 37 °C, read-out: DYRK1A Remaining Activity with 200 µM ATP): 9.4 ± 1.4%
remaining activity at 10 µM ([2]; 10 µM compound, 400 µM ATP, up to 60 min at 37 °C, read-out: DYRK1A Remaining Activity with 400 µM ATP): 7 ± 1.1%
remaining activity at 10 µM ([2]; 10 µM compound, 800 µM ATP, up to 60 min at 37 °C, read-out: DYRK1A Remaining Activity with 800 µM ATP): 5.4 ± 0.9%
remaining activity at 10 µM ([2]; 10 µM compound, 1 mM ATP, 60 µM peptide, native DYRK1A, read-out: DYRK1A Remaining Activity at 10 µM): 4.6 ± 0.9%
remaining activity at 100 µM ([2]; 100 µM compound, 1 mM ATP, 60 µM peptide, native DYRK1A): 2.3 ± 0.5%
Mode of inhibition of DYRK1A against ATP ([2]; DYRK1A-ΔC and DYRK1A, 10 µM compound, ATP 200–800 µM): noncompetitive inhibitor
remaining activity at 0.1 µM [1, 4]: 78.1 ± 3.6%
remaining activity at 1 µM [1, 5]: 27.1 ± 7.3%
remaining activity at 10 µM ([1]; 10 µM compound, 200 µM ATP, up to 60 min at 37 °C, read-out: DYRK1A-ΔC Remaining Activity With 200 µM ATP): 8 ± 0.8%
remaining activity at 10 µM ([1]; 10 µM compound, 400 µM ATP, up to 60 min at 37 °C, read-out: DYRK1A-ΔC Remaining Activity with 400 µM ATP): 6.5 ± 0.9%
remaining activity at 10 µM ([1]; 10 µM compound, 800 µM ATP, up to 60 min at 37 °C, read-out: DYRK1A-ΔC Remaining Activity with 800 µM ATP): 4 ± 0.5%
remaining activity at 10 µM [1, 6]: 11.8 ± 4.2%
remaining activity at 100 µM [1, 7]: 7.6 ± 2.3%
SMILES: O=C(O[C@@H]1Cc2c(O)cc(O)cc2O[C@@H]1c1ccc(O)c(O)c1)c1cc(O)c(O)c(O)c1 [ECG, epicatechin gallate]

SMILES: Oc1cc(O)c2c(c1)O[C@H](c1cc(O)c(O)c(O)c1)[C@H](O)C2 [EGC, epigallocatechin]
remaining activity at 0.1 µM [1, 4]: 99.5 ± 3.2%
remaining activity at 1 µM [1, 5]: 93.6 ± 2.6%
remaining activity at 10 µM [1, 6]: 80.6 ± 11.4%
remaining activity at 100 µM [1, 7]: 81.4 ± 12.8%
Effect on DYRK1A-ΔC activity (in words) ([1]; 1 mM ATP): No effect

SMILES: O=C(O[C@@H]1Cc2c(O)cc(O)cc2O[C@@H]1c1cc(O)c(O)c(O)c1)c1cc(O)c(O)c(O)c1 [EGCG, epigallocatechin-3-gallate]
Crossing of the blood-brain barrier (in words) ([3]; WT and TgBACDyrk1A mice, FontUp D2, two days, from Kp): had crossed the BBB
concentration at 4 h ([3]; TgBACDyrk1A, brain, 50 mg/Kg, TgDyrk1A mice, FontUp D2 oral gavage, n = 5, p < 0.07): 50 nM
Kp at 4 h ([3]; TgBACDyrk1A, 50 mg/Kg, TgDyrk1A mice, FontUp D2 oral gavage): 3.6 ± 0.82
concentration at 4 h ([3]; TgBACDyrk1A, plasma, 50 mg/Kg, TgDyrk1A mice, FontUp D2 oral gavage, n = 5): 36 ± 11 nM
concentration at 4 h ([3]; brain, 50 mg/Kg, WT mice, FontUp D2 oral gavage, n = 5): 25 ± 7 nM
Kp at 4 h ([3]; 50 mg/Kg, WT mice, FontUp D2 oral gavage): 1.2 ± 0.33
concentration at 4 h ([3]; plasma, 50 mg/Kg, WT mice, FontUp D2 oral gavage, n = 5): 65 ± 23 nM
concentration at 4 h ([3]; plasma, WT mice, FontUp high dose D3 (75 mg/Kg) oral gavage, last dose 4 h before sacrifice): 104 ± 11.2 nM
concentration at 4 h ([3]; plasma, WT mice, FontUp intermediate dose D2 (50 mg/Kg) oral gavage, last dose 4 h before sacrifice): 63 ± 10.8 nM
concentration at 4 h ([3]; plasma, WT mice, FontUp low dose D1 (25 mg/Kg) oral gavage, last dose 4 h before sacrifice): 28 ± 0.0003 nM
remaining activity at 0.1 µM [1]: 71.3 ± 4.6%
remaining activity at 1 µM [1]: 16.3 ± 2.3%
remaining activity at 10 µM ([1]; read-out: DYRK1A-ΔC Remaining Activity at 10 µM): 6.4 ± 1.1%
remaining activity at 100 µM [1]: 3.5 ± 0.8%
Mode of inhibition of DYRK1A (DYRK1A; against both substrates): non-competitive inhibitor
IC50 (DYRK1A; read-out: IC50 to inhibit DYRK1A activity): 330 nM
